Experimental data taken from US9428759B2, “Methods for increasing the production of phenolic compounds from Theobroma cacao” (Casa Luker S.A., priority 2012, dated 2016).

Tested on: cocoa callus
Assay: Induction of cocoa callus development with 2,4-D and chitosan
Format: cell-based, Theobroma cacao
Source text: After surface sterilization, seeds (grains) were subjected to induction of calluses in specific media for tissue cultures as follows (see Murashige, T. and Skoog, F. “A revised medium for rapid growth and bioassays with tobacco tissue cultures,” Physiologia Plantarum, 1962, Vol 15: 473-495). Disinfected cocoa seeds were submitted to extraction of embryonic cells under aseptic conditions, and transferred to growth medium (MS), which contains mineral salts and microelements, and which is enriched with myo-inositol (100 mg/L) and sucrose (30 g/L), with gellan gum (2.4 g/L) as a gelling agent. The cocoa explants were incubated under dark conditions for 7 days at 22-24° C. After the incubation period, the cocoa embryonic cells were subcultured in nutrient media with the same types of ingredients as the media mentioned above, but containing different concentrations of auxins (growth hormones 2,4-D), using […] (0, 0.1, 0.5, 1.0 and 2.0 mg/L). […]
Different concentrations including 0, 0.1, 0.2, 0.5, 1, 2, 4, mg/L of kinetin were evaluated. Also, kinetin was used with or without 2,4-D at concentration of 2 mg/L. The growth of calluses was evaluated after 100 days, and different parameters were used to determine the effects of the growth regulators on callus growth including % of disaggregation and height and diameter of the callus. […]

With O=C(O)COc1ccc(Cl)cc1Cl [2,4 D, 2,4-dichlorophenoxyacetic acid] the “growth in cocoa calluses” value (2 mg/L, all three cocoa phenotypes, early stages of development) was “induced larger growth” and the “% of Callus Development” value (2,4-D 2 mgL^−1, initial callus development, three cocoa phenotypes) was 22.9167%.
